# Marks after values point to notes of the source that are not given here.
# How the values were obtained:
# [1] = Example 1: broiler performance (body weight, gain, feed intake, FCR), PQQ in diet, 0 to 49 days; type: in vivo, Broiler Chicken (Ross 708)
# Description: Study Animals: • Animal: Broiler Chicken • Breed/Strain: Ross 708 • Description: Day-of-hatch male chicks, sexed at hatchery • Sex: Male Total number of treatments: 4 Total number of replicates per treatment: 12 Total number of chicks per replicate: 40 Initial age: day-of-hatch: 0 days-of-age Final age: 7 weeks: 49 days-of-age. Feed will be changed based on the days of each phase. • Starter feed will be weighed out and fed from day 0 to 14. On day 14, non-consumed starter feed will be weighed by pen and discarded. • Grower feed will be weighed, issued and fed from day 14 until 28. On day 28, non-consumed grower feed will be weighed by pen and discarded. • Finisher feed will be weighed, issued and fed from day 28 until 42. On day 42, non-consumed finisher feed will be weighed by pen and discarded. • Withdraw feed will be weighed, issued and fed from day 42 until 49. On day 49, non-consumed finisher feed will be weighed by pen and discarded. Performance: Feed consumption and pen weights are determined on days 0, 14, 21, 28, 35, 42 and 49 to calculate average body weight (BW), body weight gain (BWG) and feed conversion ratio (FCR). Final bird weights: At the end of the grow-out period (Day 49), all birds are weighed, as well as any and all remaining feed. Randomized Complete Block Design with 4 treatments×12 replicates/treatment (40 birds/pen), randomized within blocks across the barn to minimize differences in environmental condition. The pen is the experimental unit. Dietary Treatments • Control (NC, negative control without PQQ) • 0.5 ppm PQQ • 1 ppm PQQ • 2 ppm PQQ The results are presented in the following tables 1-4 for broilers fed diets from the first week to the seventh week (corresponding to 0 to 49 days of age). The values are means and SD is standard variation. The feed conversion ratio is the ratio between feed intake and body weight gain.
# [2] = Example 2: carcass, abdominal fat and yields of commercial cuts at 42 d; type: in vivo, Broiler Chicken (Cobb 500); details: for Abdominal fat yield / Breast fillets yield / Breast tenders yield / Drumsticks yield / Thighs yield / Wings yield: proportion of the carcass
# Description: Study Animals: • Animal: Broiler Chicken • Breed/Strain: Cobb 500 • Description: Day-of-hatch male chicks, sexed at hatchery • Sex: Male
# Processing: On day […] (12) birds are selected from each pen for processing (at 12 reps/trt: 576 birds in total; 144 birds/trt)
# Dietary Treatments • Control (NC, negative control without PQQ) • 0.2 ppm PQQ • 0.5 ppm PQQ • 1 ppm PQQ
structure (smiles),measurement,setting,value
"O=C(O)c1cc(C(=O)O)c2c(n1)C(=O)C(=O)c1cc(C(=O)O)[nH]c1-2 [PQQ, pyrroloquinoline quinone]",body weight,"[1]; 0.5 ppm PQQ, wk 1",0.139 kg
same,feed conversion ratio (FCR),"[1]; 0.5 ppm PQQ, wk 1",1.491
same,feed intake,"[1]; 0.5 ppm PQQ, wk 1",0.142 kg
same,weekly body weight gain,"[1]; 0.5 ppm PQQ, wk 1",0.095 kg
same,body weight,"[1]; 0.5 ppm PQQ, wk 2",0.355 kg
same,feed conversion ratio (FCR),"[1]; 0.5 ppm PQQ, wk 2",1.400
same,feed intake,"[1]; 0.5 ppm PQQ, wk 2",0.299 kg
same,weekly body weight gain,"[1]; 0.5 ppm PQQ, wk 2",0.215 kg
same,body weight,"[1]; 0.5 ppm PQQ, wk 3",0.763 kg
same,feed conversion ratio (FCR),"[1]; 0.5 ppm PQQ, wk 3",1.623
same,feed intake,"[1]; 0.5 ppm PQQ, wk 3",0.671 kg
same,weekly body weight gain,"[1]; 0.5 ppm PQQ, wk 3",0.414 kg
same,body weight,"[1]; 0.5 ppm PQQ, wk 4",1.286 kg
same,feed conversion ratio (FCR),"[1]; 0.5 ppm PQQ, wk 4",1.435
same,feed intake,"[1]; 0.5 ppm PQQ, wk 4",0.796 kg
same,weekly body weight gain,"[1]; 0.5 ppm PQQ, wk 4",0.556 kg
same,body weight,"[1]; 0.5 ppm PQQ, wk 5",2.042 kg
same,feed conversion ratio (FCR),"[1]; 0.5 ppm PQQ, wk 5",1.617
same,feed intake,"[1]; 0.5 ppm PQQ, wk 5",1.139 kg
same,weekly body weight gain,"[1]; 0.5 ppm PQQ, wk 5",0.688 kg
same,body weight,"[1]; 0.5 ppm PQQ, wk 6",2.808 kg
same,feed conversion ratio (FCR),"[1]; 0.5 ppm PQQ, wk 6",1.755
same,feed intake,"[1]; 0.5 ppm PQQ, wk 6",1.346 kg
same,weekly body weight gain,"[1]; 0.5 ppm PQQ, wk 6",0.767 kg
same,body weight,"[1]; 0.5 ppm PQQ, wk 7",3.416 kg
same,feed conversion ratio (FCR),"[1]; 0.5 ppm PQQ, wk 7",1.603
same,feed intake,"[1]; 0.5 ppm PQQ, wk 7",0.986 kg
same,weekly body weight gain,"[1]; 0.5 ppm PQQ, wk 7",0.622 kg
same,influence on the body weight,"[1]; 0.5 ppm, as from the second week",positive influence
same,body weight,"[1]; 1.0 ppm PQQ, wk 1",0.145 kg
same,feed conversion ratio (FCR),"[1]; 1.0 ppm PQQ, wk 1",1.514
same,feed intake,"[1]; 1.0 ppm PQQ, wk 1",0.151 kg
same,weekly body weight gain,"[1]; 1.0 ppm PQQ, wk 1",0.100 kg
same,body weight,"[1]; 1.0 ppm PQQ, wk 2",0.371 kg
same,feed conversion ratio (FCR),"[1]; 1.0 ppm PQQ, wk 2",1.418
same,feed intake,"[1]; 1.0 ppm PQQ, wk 2",0.315 kg
same,weekly body weight gain,"[1]; 1.0 ppm PQQ, wk 2",0.225 kg
same,body weight,"[1]; 1.0 ppm PQQ, wk 3",0.790 kg
same,feed conversion ratio (FCR),"[1]; 1.0 ppm PQQ, wk 3",1.619
same,feed intake,"[1]; 1.0 ppm PQQ, wk 3",0.678 kg
same,weekly body weight gain,"[1]; 1.0 ppm PQQ, wk 3",0.419 kg
same,body weight,"[1]; 1.0 ppm PQQ, wk 4",1.329 kg
same,feed conversion ratio (FCR),"[1]; 1.0 ppm PQQ, wk 4",1.427
same,feed intake,"[1]; 1.0 ppm PQQ, wk 4",0.816 kg
same,weekly body weight gain,"[1]; 1.0 ppm PQQ, wk 4",0.573 kg
same,body weight,"[1]; 1.0 ppm PQQ, wk 5",2.112 kg
same,feed conversion ratio (FCR),"[1]; 1.0 ppm PQQ, wk 5",1.608
same,feed intake,"[1]; 1.0 ppm PQQ, wk 5",1.161 kg
same,weekly body weight gain,"[1]; 1.0 ppm PQQ, wk 5",0.723 kg
same,body weight,"[1]; 1.0 ppm PQQ, wk 6",2.927 kg
same,feed conversion ratio (FCR),"[1]; 1.0 ppm PQQ, wk 6",1.741
same,feed intake,"[1]; 1.0 ppm PQQ, wk 6",1.370 kg
same,weekly body weight gain,"[1]; 1.0 ppm PQQ, wk 6",0.787 kg
same,body weight,"[1]; 1.0 ppm PQQ, wk 7",3.612 kg
same,feed conversion ratio (FCR),"[1]; 1.0 ppm PQQ, wk 7",1.616
same,feed intake,"[1]; 1.0 ppm PQQ, wk 7",1.106 kg
same,weekly body weight gain,"[1]; 1.0 ppm PQQ, wk 7",0.686 kg
same,influence on the body weight,"[1]; 1 ppm and 2 ppm, as from the first week up to the end of the assay",positive influence
same,body weight,"[1]; 2.0 ppm PQQ, wk 1",0.146 kg
same,feed conversion ratio (FCR),"[1]; 2.0 ppm PQQ, wk 1",1.406
same,feed intake,"[1]; 2.0 ppm PQQ, wk 1",0.142 kg
same,weekly body weight gain,"[1]; 2.0 ppm PQQ, wk 1",0.102 kg
same,body weight,"[1]; 2.0 ppm PQQ, wk 2",0.373 kg
same,feed conversion ratio (FCR),"[1]; 2.0 ppm PQQ, wk 2",1.414
same,feed intake,"[1]; 2.0 ppm PQQ, wk 2",0.315 kg
same,weekly body weight gain,"[1]; 2.0 ppm PQQ, wk 2",0.224 kg
same,body weight,"[1]; 2.0 ppm PQQ, wk 3",0.794 kg
same,feed conversion ratio (FCR),"[1]; 2.0 ppm PQQ, wk 3",1.608
same,feed intake,"[1]; 2.0 ppm PQQ, wk 3",0.645 kg
same,weekly body weight gain,"[1]; 2.0 ppm PQQ, wk 3",0.425 kg
same,body weight,"[1]; 2.0 ppm PQQ, wk 4",1.331 kg
same,feed conversion ratio (FCR),"[1]; 2.0 ppm PQQ, wk 4",1.469
same,feed intake,"[1]; 2.0 ppm PQQ, wk 4",0.813 kg
same,weekly body weight gain,"[1]; 2.0 ppm PQQ, wk 4",0.548 kg
same,body weight,"[1]; 2.0 ppm PQQ, wk 5",2.065 kg
same,feed conversion ratio (FCR),"[1]; 2.0 ppm PQQ, wk 5",1.605
same,feed intake,"[1]; 2.0 ppm PQQ, wk 5",1.141 kg
same,weekly body weight gain,"[1]; 2.0 ppm PQQ, wk 5",0.727 kg
same,body weight,"[1]; 2.0 ppm PQQ, wk 6",2.835 kg
same,feed conversion ratio (FCR),"[1]; 2.0 ppm PQQ, wk 6",1.741
same,feed intake,"[1]; 2.0 ppm PQQ, wk 6",1.336 kg
same,weekly body weight gain,"[1]; 2.0 ppm PQQ, wk 6",0.77 kg
same,body weight,"[1]; 2.0 ppm PQQ, wk 7",3.472 kg
same,feed conversion ratio (FCR),"[1]; 2.0 ppm PQQ, wk 7",1.615
same,feed intake,"[1]; 2.0 ppm PQQ, wk 7",1.041 kg
same,weekly body weight gain,"[1]; 2.0 ppm PQQ, wk 7",0.648 kg
same,influence on the feed intake,[1]; as from a concentration of 1 ppm,has an influence on the feed intake
same,Abdominal fat weight,[2]; 0.2 ppm PQQ,26 g
same,Breast fillets weight,[2]; 0.2 ppm PQQ,680 g
same,Breast tenders weight,[2]; 0.2 ppm PQQ,127ab g
same,Carcass yield (eviscerated carcass as a percentage of body weight),[2]; 0.2 ppm PQQ,80.3^b %
same,Drumsticks weight,[2]; 0.2 ppm PQQ,467 g
same,Thighs weight,[2]; 0.2 ppm PQQ,364 g
same,Wings weight,[2]; 0.2 ppm PQQ,258 g
same,Abdominal fat yield,[2]; 0.2 ppm PQQ,1.05%
same,Breast fillets yield,[2]; 0.2 ppm PQQ,26.8%
same,Breast tenders yield,[2]; 0.2 ppm PQQ,5.03^b %
same,Drumsticks yield,[2]; 0.2 ppm PQQ,18.42^b %
same,Thighs yield,[2]; 0.2 ppm PQQ,14.36^ab %
same,Wings yield,[2]; 0.2 ppm PQQ,10.19^ab %
same,Abdominal fat weight,[2]; 0.5 ppm PQQ,28 g
same,Breast fillets weight,[2]; 0.5 ppm PQQ,677 g
same,Breast tenders weight,[2]; 0.5 ppm PQQ,129ab g
same,Carcass yield (eviscerated carcass as a percentage of body weight),[2]; 0.5 ppm PQQ,80.4^b %
same,Drumsticks weight,[2]; 0.5 ppm PQQ,473 g
same,Thighs weight,[2]; 0.5 ppm PQQ,378 g
same,Wings weight,[2]; 0.5 ppm PQQ,258 g
same,Abdominal fat yield,[2]; 0.5 ppm PQQ,1.11%
same,Breast fillets yield,[2]; 0.5 ppm PQQ,26.8%
same,Breast tenders yield,[2]; 0.5 ppm PQQ,5.12^ab %
same,Drumsticks yield,[2]; 0.5 ppm PQQ,18.73^ab %
same,Thighs yield,[2]; 0.5 ppm PQQ,15.01^a %
same,Wings yield,[2]; 0.5 ppm PQQ,10.42^a %
same,Abdominal fat weight,[2]; 1.0 ppm PQQ,23 g
same,Breast fillets weight,[2]; 1.0 ppm PQQ,702 g
same,Breast tenders weight,[2]; 1.0 ppm PQQ,134a g
same,Carcass yield (eviscerated carcass as a percentage of body weight),[2]; 1.0 ppm PQQ,80.3^b %
same,Drumsticks weight,[2]; 1.0 ppm PQQ,486 g
same,Thighs weight,[2]; 1.0 ppm PQQ,366 g
same,Wings weight,[2]; 1.0 ppm PQQ,259 g
same,Abdominal fat yield,[2]; 1.0 ppm PQQ,0.90%
same,Breast fillets yield,[2]; 1.0 ppm PQQ,27.4%
same,Breast tenders yield,[2]; 1.0 ppm PQQ,5.22^a %
same,Drumsticks yield,[2]; 1.0 ppm PQQ,18.89^a %
same,Thighs yield,[2]; 1.0 ppm PQQ,14.24^b %
same,Wings yield,[2]; 1.0 ppm PQQ,10.05^ab %

# Source: patent publication US20210161174A1, “FEED ADDITIVE FOR FARMED ANIMALS” (ADISSEO FRANCE S.A.S., priority 2018, published 2021)
